Measured values as given in patent US4402964A, “N-Aryl-N'-(3-methyl or ethyl-4-oxothiazolidinylidene)ureas useful for the treatment of epilepsy” (McNeilab, Inc., priority 1981, dated 1983).

System: tonic extensor seizure caused by applying an electric shock to mice via corneal electrodes
Assay: Maximal Electroshock (MES) test in mice (anticonvulsant activity)
Format: in vivo
Design: key to Mice MES test results (IA): IA: inactive
Settings: for ED50: Mus musculus, po, read-out: ED50, Mice MES test results dose (50% of the animals show a block of tonic extensor convulsions)
From the text: Activity in the MES test, indicating anticonvulsant activity, is characterized by a block of the tonic extensor seizure caused by applying an electric shock to mice via corneal electrodes as described in Swinyard et al., J. Pharmacol. Exp. Ther., 106, 319-330 (1952) and recorded as % block. A more recent description of current practice in anticonvulsant drug screening has also been reported by Swinyard et al., Epilepsia, 19, 409-428 (1978).
In said table, the ED50 result means that 50% of the animals show a block of tonic extensor convulsions in the MES test.

[1] = 10 mg/kg p.o., mice, only dose available

Row | Structure (SMILES) | ED50 (mice, p.o.) [mg/kg] | further results
1 | Cc1cccc(C)c1NC(=O)N=C1SCC(=O)N1C [Example I, N-(2,6-dimethylphenyl)-N'-(3-methyl-4-oxo-2-thiazolidinylidene)urea] | 9.96 | 
2 | CN1C(=O)CSC1=NC(=O)Nc1c(Cl)cccc1Cl [Example II, N-(2,6-dichlorophenyl)-N'-(3-methyl-4-oxo-2-thiazolidinylidene)urea] | 28.3 | 
3 | O=C1CSC(=NC(=O)Nc2ccccc2)N1 [Example X-888, reference compound] |  | Mice MES test results (activity in words) (200 mg/kg p.o.): not active; Mice MES test results (IA) (200 mg/kg p.o., mice): IA
4 | CN1C(=O)CSC1=NC(=O)Nc1c(F)cccc1F [Example X] | 52.2 | 
5 | CCc1cccc(C)c1NC(=O)N=C1SCC(=O)N1C [III] |  | % block (MES test) [1]: 10%; Mice MES test results (activity in words) [1]: Active
6 | Cc1cccc(Cl)c1NC(=O)N=C1SCC(=O)N1C [IV, N-(2-chloro-6-methylphenyl)-N'-(3-methyl-4-oxo-2-thiazolidinylidene)urea] | 28.5 | 
7 | COc1cccc(OC)c1NC(=O)N=C1SCC(=O)N1C [IX] | 35.7 | 
8 | Cc1cccc(C)c1NC(=O)N=C1NC(=O)CS1 [McN-4241, reference compound] | 242 | ED50 range, Mice MES test results (mice, p.o., range printed in parentheses with the ED50): 196.5 to 296.9 mg/kg
9 | O=C1CSC(=NC(=O)Nc2c(Cl)cccc2Cl)N1 [McN-4242, reference compound] |  | Mice MES test results (IA) (200 mg/kg p.o., mice): IA
10 | Cc1cccc(NC(=O)N=C2SCC(=O)N2C)c1C [VIII] | 128 | 
11 | CN1C(=O)CSC1=NC(=O)Nc1c(Br)cccc1Br [VII] | 83.9 | 
12 | CN1C(=O)CSC1=NC(=O)Nc1c(Br)cc(F)cc1Br [VI] |  | Mice MES test results (activity in words) (200 mg/kg p.o.): Active; % block (MES test) (200 mg/kg p.o., mice): 60%
13 | CCc1cccc(CC)c1NC(=O)N=C1SCC(=O)N1C [V] | 17.5 | 
